pIC50: −log10 of the molar value.
Biological target: T1, Cholesteryl ester transfer protein (Homo sapiens, UniProt P11597)
T1 sequence (P11597 whole entry): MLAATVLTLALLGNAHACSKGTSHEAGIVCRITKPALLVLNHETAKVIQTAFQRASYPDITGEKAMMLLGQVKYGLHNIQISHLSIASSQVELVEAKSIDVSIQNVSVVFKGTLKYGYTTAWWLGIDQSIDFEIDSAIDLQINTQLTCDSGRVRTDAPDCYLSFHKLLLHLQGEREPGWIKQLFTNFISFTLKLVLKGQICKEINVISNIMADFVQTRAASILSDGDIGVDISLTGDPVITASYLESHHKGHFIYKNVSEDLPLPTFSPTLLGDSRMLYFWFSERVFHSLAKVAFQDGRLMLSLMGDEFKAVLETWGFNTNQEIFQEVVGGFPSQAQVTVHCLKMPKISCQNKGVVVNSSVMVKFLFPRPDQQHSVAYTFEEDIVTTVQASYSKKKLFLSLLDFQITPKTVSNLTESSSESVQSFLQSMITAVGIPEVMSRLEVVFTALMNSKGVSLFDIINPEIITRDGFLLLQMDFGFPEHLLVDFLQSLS
Test: Compound was measured for its inhibitory activity against cholesteryl ester transfer protein (CETP)

Structure (SMILES)	pIC50
CCCCCCCCCCCCC/C=C/C(O)C(N)CO[C@H]1O[C@H](CO)[C@H](O)[C@H](O)[C@H]1O (stereo not given in full)	4.71
CC(C)CNC(=O)/C=C/[C@@H]1C[C@H]1[C@@H]1C[C@H]1[C@@H]1C[C@H]1[C@@H]1C[C@H]1[C@@H]1C[C@H]1/C=C/[C@@H]1C[C@H]1C	4.60
CCCCCCCCCCCCCCCC(=O)N[C@@H](CO)[C@H](O)/C=C/CC/C=C/CCCCCCCC(C)C	4.06
CCCCCCCCCCCCC/C=C/C(O)C(CO)N(C)C (stereo not given)	5.20
CCCCCCCCCCCCC/C=C/[C@@H](O)[C@H](CO)NC(=O)CCCCCCCCCCCCCCC	4.18
CCCCCCCCC/C=C/CC/C=C/[C@@H](O)[C@H](CO)NC(=O)CCCCCCCCCCCCCCC	4.33
CCCCCCC/C=C/C=C/CC/C=C/[C@@H](O)[C@H](CO)NC(=O)CCCCCCCCCCCCCCC	4.24
CCCCCCCCCCCCCCC[C@@H](O)[C@@H](N)CO (racemic) [DIHYDROSPINGOSINE]	4.89
CCCCCCCCCCCCC/C=C/[C@@H](O)[C@@H](N)CO [SPHINGOSINE]	4.94
CCCCCCCCCCCCC/C=C/[C@@H](O)[C@@H](N)COP(=O)([O-])OCC[N+](C)(C)C [SPHINGOSYLPHOSPHORYLCHLOLINE]	3.80

From ChEMBL document CHEMBL1130448, “CETP inhibitory activity of ceramides, isolated from the gorgonian Acabaria Undulata” (Bioorg Med Chem Lett, 1997)
